Target: T1, Interleukin-1β (IL-1β) (Homo sapiens, UniProt P01584)
T1 construct: gene IL1B; recombinant human IL-1β
Assay: SPR (Biacore T200, IL-1β immobilized on CM5 chip)
Type: binding

T1 sequence (P01584 117-269): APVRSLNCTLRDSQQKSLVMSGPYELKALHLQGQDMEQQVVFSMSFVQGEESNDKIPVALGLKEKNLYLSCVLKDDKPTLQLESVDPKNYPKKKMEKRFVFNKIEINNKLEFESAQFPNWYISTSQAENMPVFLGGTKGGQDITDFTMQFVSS

Kd: 0.822 µM
SMILES: O=C(OC[C@H]1O[C@@H](OC(=O)c2cc(O)c(O)c(OC(=O)c3cc(O)c(O)c(O)c3)c2)[C@H](OC(=O)c2cc(O)c(O)c(OC(=O)c3cc(O)c(O)c(O)c3)c2)[C@@H](OC(=O)c2cc(O)c(O)c(OC(=O)c3cc(O)c(O)c(O)c3)c2)[C@@H]1OC(=O)c1cc(O)c(O)c(OC(=O)c2cc(O)c(O)c(O)c2)c1)c1cc(O)c(O)c(OC(=O)c2cc(O)c(O)c(O)c2)c1 [TA, Tannic acid]
